Our source for the IC50 values is US20090247519A1, “AMINO-ETHYL-AMINO-ARYL (AEAA) COMPOUNDS AND THEIR USE” (priority 2006, published 2009).

The target of this assay is T1, Human full length PKD2 (Homo sapiens, UniProt Q9BZL6).
T1 construct: Human full length PKD2 at ˜100 μg/mL was purchased from Upstate Ltd; purchased Upstate Ltd 14-506
T1 sequence (Q9BZL6 1-878): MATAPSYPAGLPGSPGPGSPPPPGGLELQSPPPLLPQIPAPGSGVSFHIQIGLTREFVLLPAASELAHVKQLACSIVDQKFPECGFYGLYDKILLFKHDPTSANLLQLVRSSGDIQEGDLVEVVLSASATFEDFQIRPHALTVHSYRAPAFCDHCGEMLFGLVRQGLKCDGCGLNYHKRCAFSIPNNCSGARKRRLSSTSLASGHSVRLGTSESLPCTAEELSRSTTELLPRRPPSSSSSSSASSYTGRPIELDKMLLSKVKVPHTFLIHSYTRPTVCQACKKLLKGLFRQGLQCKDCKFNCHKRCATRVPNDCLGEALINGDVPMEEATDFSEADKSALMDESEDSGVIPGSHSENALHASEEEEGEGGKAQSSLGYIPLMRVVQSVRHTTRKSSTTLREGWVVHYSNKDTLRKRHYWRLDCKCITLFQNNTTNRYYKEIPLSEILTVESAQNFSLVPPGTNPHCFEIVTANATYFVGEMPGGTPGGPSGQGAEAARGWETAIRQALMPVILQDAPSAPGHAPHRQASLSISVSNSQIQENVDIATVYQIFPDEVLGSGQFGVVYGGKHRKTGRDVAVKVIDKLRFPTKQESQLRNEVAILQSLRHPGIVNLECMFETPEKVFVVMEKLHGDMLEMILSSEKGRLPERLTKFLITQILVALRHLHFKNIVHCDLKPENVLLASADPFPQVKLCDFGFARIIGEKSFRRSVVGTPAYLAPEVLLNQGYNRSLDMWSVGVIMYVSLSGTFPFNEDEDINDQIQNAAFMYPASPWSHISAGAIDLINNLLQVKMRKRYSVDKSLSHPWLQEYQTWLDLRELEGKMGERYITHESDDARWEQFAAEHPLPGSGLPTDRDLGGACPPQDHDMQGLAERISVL
The experiment in a line: PKD2 (Human Full Length) Enzyme Activity Assay (IMAP fluorescence polarisation). The format is biochemical. To be noted: 10 point dose-response. As for the experimental part: PKD2 (Human Full Length) Enzyme Activity Assay
Kinase Assay Reaction Buffer: This consisted of 0.22 μM filtered 25 mM HEPES and 10 mM MgCl2 pH 7.5.
Kinase: Human full length PKD2 at ˜100 μg/mL was purchased from Upstate Ltd (Product code 14-506), and obtained from aliquots stored at −70° C. It was prepared with a final concentration of […] by diluting 1:300 in Reaction Buffer (30 μL per 9 mL-5 mL per plate with an additional 4 mL dead volume) and vortexing prior to use. It is necessary to check this concentration regularly in case of enzyme degradation. […]
5 μL Kinase/Substrate in Reaction Buffer was added to ‘test’ and all ‘control’ wells of a Corning black low binding 384 well (90 μL volume) microplate to give 0.1 μg/mL and 2 μM reaction concentration respectively. […] The fluorescence polarisation of the peptide substrate was measured using an analyst (Molecular devices) microplate reader with a single read at Ex485 Em535 (Analyst settings: Z Height 5 mm, G Factor 0.95, Reads/well 1, Integration 100000 μs, Gain Sensitivity 2).
Percentage inhibition was calculated based on activity of the test sample minus the average values in the blank wells relative to the average values measured in control wells minus the average values in the blank wells.
IC50 values were calculated from 10 point dose sigmoid ‘dose-response’ curves using XIfit software (IDBS inc, USA). […]
On the technique in general: Polarisation of emitted light reports the rotation of a fluorescent probe.

With `CC[C@@H](N)CN(C)c1ccnc(-c2cc(Cl)ccc2O)n1` [XX-276, 2-{4-[((R)-2-Amino-butyl)-methyl-amino]-pyrimidin-2-yl}-4-chloro-phenol], the 50% inhibitory concentration (IC50) is 4.1 nM.

The term IC50 denotes the concentration that gives 50% inhibition. Low readings indicate greater potency, high ones weaker potency.
